This is an account of results in US11382867B2, “Apomorphine-palmitic acid cocrystal solid particle crystalline form” (LEUKOS BIOTECH, S. L., priority 2018, dated 2022).

Counter-ions that a name gives are not always drawn.

Series [1] is described as follows: In vivo comparative pharmacokinetic and tolerance study, subcutaneous administration. The following applies: rats. How it is done: Apomorphine Hydrochloride (Apo-HCl) was administered subcutaneously to Sprague Dawley rats three times a day for six days (total of eighteen 0.1-mL administrations). Both test items were compared for tolerance and systemic exposure: blood samples were collected from the lateral vein of the tail from all animals on treatment days 1 and 5 at all groups from main animals, samples were analyzed for apomorphine level determination.

A short description of series [2]: Solubility in water. Type of series: physicochemical. As to conditions: water at RT. How it is done: Water was progressively added at RT to APO HCl (I) until complete dissolution was reached. Subsequently, the same volume of water was added at RT to the other salts in order to compare their solubility. The mixtures were stirred for 10-15 minutes to allow equilibration. As the salts remained insoluble, the suspensions were diluted with twice the original volume and allowed to equilibrate for another 10-15 minutes at RT.

Series [3] is classed as physicochemical. The following applies: 40±2° C./75±5% RH, 1 week.

For the molecule `CN1CCc2cccc3c2[C@H]1Cc1ccc(O)c(O)c1-3` [APO HCl (I), Apomorphine hydrochloride], the “Apomorphine levels in blood (PK profile)” value in series [1] is “rapid decrease of Apomorphine levels”. The solubility in water entry in series [2] is recorded as “soluble in water”. Besides, the “volume of water for dissolution” value in series [2] (10-15 minutes equilibration) is given as 54 V.
For `CCCCCCCCCCCCCCCC(=O)O.CCCCCCCCCCCCCCCC(=O)O.CN1CCc2cccc3c2[C@H]1Cc1ccc(O)c(O)c1-3` [Form O, Apo-Palmitic Acid (1:2)], the stability entry in series [3] is given as “remained stable”. In series [1], the “Apomorphine levels in blood (PK profile)” value is given as “Sustained Apomorphine levels”. In series [1] (compared with Apo-HCl), the AUC result is “higher than Apo-HCl” and the Cmax result is reported as “lower than Apo-HCl”.
